Measurements published in PMC10891067, “A co-assembly platform engaging macrophage scavenger receptor A for lysosome-targeting protein degradation” (Nature Communications, 2024).
Residues, ends and D or L forms follow the SMILES beside them. *: point of attachment. Fmoc = O=C(OCC1c2ccccc2-c2ccccc21)*; Ahx = NCCCCCC(=O)O

Columns and labels:
IL-17A [1] = target: T1, IL-17A (Mus musculus, UniProt Q62386); experiment: Lysosome inhibition assay (LPT, BafA1); format: cell-based; set-up: host or cells: added exogenously to RAW264.7, SR-A-KO RAW264.7, U-118 MG, DC 2.4 or HaCaT cells; settings: RAW264.7, 0.5 μg/ml IL-17A + 50 μM 17A-Lytaca, 6 h
T1 sequence (Q62386 26-158): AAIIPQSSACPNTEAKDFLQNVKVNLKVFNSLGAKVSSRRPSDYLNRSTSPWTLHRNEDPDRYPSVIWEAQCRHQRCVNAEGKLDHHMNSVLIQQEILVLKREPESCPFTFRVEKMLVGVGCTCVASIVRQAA
Experimental: To confirm the involvement of lysosomes, RAW264.7 cells were pretreated with PBS, LPT (0.1 mg/ml), or BafA1 (100 nM) for 2 h at 37 °C. […] The accumulation of IL-17A in the cells was then measured via flow cytometry, following the aforementioned procedure.

[2] = In vivo localization and clearance assay of 17A-Lytaca (IVIS); set-up: species or system mouse; settings: psoriasis mice, i.p. Cy-labeled 17A-Lytaca (Cy5-fm-17Abp 5 mg/kg, Cy7-fm-SRAL 7.3 mg/kg)
Experimental: Fluorescence imaging in both the Cy5 and Cy7 channels was conducted using the in vivo imaging system (IVIS Spectrum) at 4, 8, 12, 24, and 48 h post-injection. Further, for biodistribution assessment, mice were sacrificed at 6 h post-injection, and skins along with major organs (heart, liver, spleen, lung, and kidney) were removed for ex vivo fluorescence imaging.

[3] = Serum clearance kinetics of 17A-Lytaca relevant peptides; format: in vivo, mouse; settings: healthy mice, i.p. Cy-labeled 17A-Lytaca (Cy5-fm-17Abp 15 mg/kg, Cy3-fm-SRAL 22 mg/kg), IVIS, n = 3
Experimental: Serum samples were collected at 0, 1, 2, 3, 4, 8, 12, and 24 h for analysis. The fluorescence intensity of serum was measured with the in vivo imaging system (IVIS) spectrum.

IL-17A [4] = target: T1, IL-17A; experiment: IL-17A binding competition experiment with IL-17RA (IL-17A uptake); format: cell-based; set-up: host or cells: added exogenously to RAW264.7, SR-A-KO RAW264.7, U-118 MG, DC 2.4 or HaCaT cells; settings: RAW264.7, with fi-SRAL and fi-17Abp mixture and IL-17A
Experimental: To verify the binding of the IL-17A by mixed fi-17Abp and fi-SRAL, RAW264.7 cells were treated with 0.5 μg/ml IL-17A, 50 μM mixed fi-SRAL and fi-17Abp and IL-17RA at 0, 0.0125, 0.025, 0.05, 0.1, or 0.2 μg/ml for 6 h. Then, flow cytometry analysis was used to measure the intracellular IL-17A level according to the procedure mentioned above.

## CO/C1=C\C(C)=C\[C@@H](C)[C@@H](O)[C@@H](C)C/C(C)=C/C=C/[C@H](OC)[C@@H]([C@@H](C)[C@@H](O)[C@H](C)[C@@]2(O)C[C@@H](O)[C@H](C)[C@@H](C(C)C)O2)OC1=O [BafA1, Bafilomycin A1]
IL-17A [1]
  IL-17A accumulation in cells with lysosome inhibitor (in words): significantly higher IL-17A accumulation in cells

## CC(=O)N[C@@H](CC(C)C)C(=O)N[C@@H](CC(C)C)C(=O)N[C@H](C=O)CCCNC(=N)N [LPT, Leupeptin]
IL-17A [1]
  IL-17A accumulation in cells with lysosome inhibitor (in words): significantly higher IL-17A accumulation in cells

## C[C@H](NC(=O)[C@H](CCC(=O)O)NC(=O)[C@H](C)NC(=O)[C@H](CCC(=O)O)NC(=O)[C@H](C)NC(=O)[C@H](CCC(=O)O)NC(=O)[C@H](C)NC(=O)[C@H](CCC(=O)O)NC(=O)[C@H](C)NC(=O)[C@H](CCC(=O)O)NC(=O)[C@H](C)NC(=O)[C@H](CCC(=O)O)NC(=O)[C@H](C)NC(=O)[C@H](CCC(=O)O)NC(=O)[C@H](C)NC(=O)[C@H](CCC(=O)O)NC(=O)[C@H](C)NC(=O)[C@H](CCC(=O)O)NC(=O)[C@H](C)NC(=O)[C@H](CCC(=O)O)NC(=O)[C@H](C)NC(=O)[C@H](CCC(=O)O)NC(=O)[C@H](C)NC(=O)[C@H](CCC(=O)O)NC(=O)[C@H](C)NC(=O)[C@H](CCC(=O)O)NC(=O)[C@H](C)NC(=O)[C@H](CCC(=O)O)NC(=O)[C@H](C)NC(=O)[C@H](CCC(=O)O)NC(=O)CCCCCNC(=O)OCC1c2ccccc2-c2ccccc21)C(N)=O [fm-SRAL] ({Fmoc-Ahx}-EAEAEAEAEAEAEAEAEAEAEAEAEAEAEA-NH2)
[2]
  Time up to which the peptide remained detectable in vivo: 48 h
[3]
  Time up to which the serum fluorescent signal was detectable: ≤ 8 h

## IL-17RA: IL-17A receptor protein used as competitor for the 17Abp binding domain of IL-17A
IL-17A [4]
  Effect on intracellular IL-17A signal (in words): concentration-dependent attenuation
